US20210346279A1, “COMPOSITIONS COMPRISING TAPINAROF FOR THE TREATMENT OF PRURITIS” (Sol-Gel Technologies Ltd., priority 2020, published 2021)

System: C57/b16 mice
Experiment: acetone-ether-water (AEW) induced pruritus in a mouse model, spontaneous scratching recorded for 60 min
Type: in vivo
Description: The objective of this study was to examine the efficacy of topical formulations of Tapinarof in the strength of 0.5%, 1% and 2% as a treatment in acetone-ether-water (AEW) induced pruritus in a mouse model.
The model of inducing itching sensation was done by treating C57/b16 mice with AEW as was conducted in other studies in the past.
The mice were shaved 24 h prior to study to expose the skin. For 5 days, twice a day (at least 3-4 hours apart), mice were applied acetone and ether (mixed at 1:1 ratio) on the right cheek for 30 seconds, and immediately afterwards applied on cheek water for 30 seconds.
Day 1-3: AEW was treated twice (at least 3-4 hours apart), AE 30s, Water 30s.
Day 4-5: AEW was treated twice (at least 3-4 hours apart), AE 30s, Water 30s, topical administration of vehicle, tapinarof 0.5%, tapinarof 1%, tapinarof 2% (−20 h before evaluation) and randomization.
Day 5: AEW was treated once, topical administration of vehicle, tapinarof 0.5%, tapinarof 1%, and tapinarof 2% (−2 h before evaluation), positive control dosing (−30 min), video record (evaluation), animal weighing, sacrificing, plasma collection and skin sample collection.
Immediately after AEW application on day 5, the mice were put into acrylic chambers and behavior was recorded for 60 min using a video camera under unmanned conditions to assess spontaneous scratching. Videos were manually scored for time spent spontaneously scratching the affected cheek. Scratching is defined as an episode in which the mouse lifted its paw and scratched continuously for any length of time until the paw returned to the floor. Only scratches of the affected cheek with their hind paws were counted. Other scratching behaviors were disregarded. The number of scratches was summarized for each animal and the average number per group was calculated. In addition, the scratching time (seconds) was also evaluated, and the average of scratching time was calculated. Data are expressed as the mean±S.E.M. statistically significant differences between two groups were evaluated using paired or non-paired Student's t-test as required.

SMILES: CC(C)c1c(O)cc(/C=C/c2ccccc2)cc1O [tapinarof]
- effect on scratching compared with the positive control (topical formulation 0.5% w/w): comparable to the positive control
- effect over the vehicle (scratching sessions and periods) (topical formulation 0.5% w/w, applied -20 h and -2 h before evaluation): ~40%
- effect on scratching sessions and periods (topical formulation 1% w/w (percent increased twice versus 0.5%)): did not reduce the scratching sessions and periods
- effect on scratching sessions and periods (topical formulation 2% w/w (percent increased four times versus 0.5%)): did not reduce the scratching sessions and periods
